Measurements as given in patent US8445468B2, “(20S,22E)-2-methylene-19-nor-22-ene-1α,25-dihydroxyvitamin D3” (Wisconsin Alumni Research Foundation, priority 2009, dated 2013).
Where two headings read alike, the source gives them in different places.

Experiments:
[1] = test system: 24-hydroxylase (24Ohase) gene promoter; assay: In vitro transcription assay, luciferase reporter in ROS 17/2.8 (bone) cells; type: cell-based; settings: FIG. 3; for EC50: ROS 17/2.8 cells, 16 h after dosing, read-out: EC50, transcriptional activity in bone cells (24-hydroxylase gene)
Protocol: Transcription activity was measured in ROS 17/2.8 (bone) cells that were stably transfected with a 24-hydroxylase (24Ohase) gene promoter upstream of a luciferase reporter gene (Arbour et al., 1998). Cells were given a range of doses. Sixteen hours after dosing the cells were harvested and luciferase activities were measured using a luminometer.
RLU=relative luciferase units.

HL-60 cells = assay: HL-60 differentiation (nitro blue tetrazolium reduction); type: cell-based, human; settings: FIG. 2; for EC50: differentiation of HL-60 cells into monocytes, read-out: EC50, HL-60 cell differentiation
Protocol: The study drugs were dissolved in ethanol and the concentrations determined using UV spectrophotometry. Serial dilutions were prepared so that a range of drug concentrations could be tested without changing the final concentration of ethanol (≦0.2%) present in the cell cultures.
Human promyelocytic leukemia (HL60) cells were grown in RPMI-1640 medium containing 10% fetal bovine serum. The cells were incubated at 37° C. in the presence of 5% CO2.
HL60 cells were plated at 1.2×10^5 cells/ml. Eighteen hours after plating, cells in duplicate were treated with drug. Four days later, the cells were harvested and a nitro blue tetrazolium reduction assay was performed (Collins et al., 1979; J. Exp. Med. 149:969-974). The percentage of differentiated cells was determined by counting a total of 200 cells and recording the number that contained intracellular black-blue formazan deposits. Verification of differentiation to monocytic cells was determined by measuring phagocytic activity (data not shown).

vitamin D-deficient rats [2] = assay: Intestinal calcium transport (everted gut sac method); type: in vivo, rat; settings: FIG. 5
Protocol: (§1) Male, weanling Sprague-Dawley rats were placed on Diet 11 (0.47% Ca) diet +AEK oil for one week followed by Diet 11 (0.02% Ca)+AEK oil for 3 weeks. The rats were then switched to a diet containing 0.47% Ca for one week followed by two weeks on a diet containing 0.02% Ca. Dose administration began during the last week on 0.02% calcium diet. Four consecutive ip doses were given approximately 24 hours apart. Twenty-four hours after the last dose, blood was collected from the severed neck and the concentration of serum calcium determined as a measure of bone calcium mobilization. The first 10 cm of the intestine was also collected for intestinal calcium transport analysis using the everted gut sac method.

[3] = target: T1, full-length recombinant rat vitamin D receptor (Rattus norvegicus, UniProt P13053); assay: Vitamin D receptor binding, competition with [3H]-1,25(OH)2D3; settings: FIG. 1
T1 construct: Full-length recombinant rat receptor was expressed in E. coli BL21 (DE3) Codon Plus RIL cells; histidine tag (C); made in house; host or cells: E. coli BL21 (DE3) Codon Plus RIL
T1 sequence (P13053 1-423): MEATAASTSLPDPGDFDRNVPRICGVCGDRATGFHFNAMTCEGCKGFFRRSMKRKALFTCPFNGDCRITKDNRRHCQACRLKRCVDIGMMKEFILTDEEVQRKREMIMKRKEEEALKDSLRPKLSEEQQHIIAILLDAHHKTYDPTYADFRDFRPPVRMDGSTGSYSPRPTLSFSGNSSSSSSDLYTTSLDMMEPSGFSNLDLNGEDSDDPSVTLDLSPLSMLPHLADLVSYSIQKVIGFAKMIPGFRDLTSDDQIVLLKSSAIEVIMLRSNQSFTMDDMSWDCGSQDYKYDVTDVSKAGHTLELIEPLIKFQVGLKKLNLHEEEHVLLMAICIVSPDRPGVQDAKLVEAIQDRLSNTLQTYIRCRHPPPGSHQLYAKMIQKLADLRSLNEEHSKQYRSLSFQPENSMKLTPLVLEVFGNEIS
Protocol: Full-length recombinant rat receptor was expressed in E. coli BL21 (DE3) Codon Plus RIL cells and purified to homogeneity using two different column chromatography systems. The first system was a nickel affinity resin that utilizes the C-terminal histidine tag on this protein. The protein that was eluted from this resin was further purified using ion exchange chromatography (S-Sepharose Fast Flow). Aliquots of the purified protein were quick frozen in liquid nitrogen and stored at −80° C. until use. For use in binding assays, the protein was diluted in TEDK50 (50 mM Tris, 1.5 mM EDTA, pH7.4, 5 mM DTT, 150 mM KCl) with 0.1% Chaps detergent. The receptor protein and ligand concentration were optimized such that no more than 20% of the added radiolabeled ligand was bound to the receptor.
Radiolabeled and unlabeled ligands were added to 100 mcl of the diluted protein at a final ethanol concentration of ≦10%, mixed and incubated overnight on ice to reach binding equilibrium. The following day, 100 mcl of hydroxylapatite slurry (50%) was added to each tube and mixed at 10-minute intervals for 30 minutes. […] Total binding was determined from the tubes containing only radiolabeled ligand.

vitamin D-deficient rats [4] = assay: Bone calcium mobilization (serum calcium); type: in vivo, rat; settings: FIG. 4; for serum calcium (bone calcium mobilization): 260 pmol/day ip for 4 consecutive days, rats on low calcium diet (0.02%); for bone calcium mobilization activity (in words): vitamin D-deficient rats, low calcium diet
Protocol: as §1

| SMILES | EC50 [1] | potency in increasing transcription of the 24-hydroxylase gene relative to 1,25(OH)2D3 ([1]; bone cells, fold more potent than 1,25(OH)2D3) | EC50 (HL-60 cells; Homo sapiens) | potency on HL-60 cell differentiation relative to 1,25(OH)2D3 (HL-60 cells; fold more potent than 1,25(OH)2D3) | intestinal calcium transport activity compared to 1,25(OH)2D3 (vitamin D-deficient rats [2]; 32 pmol/day for 4 consecutive days) | intestinal calcium transport, dose dependence (in words) (vitamin D-deficient rats [2]; vitamin D-deficient rats) | affinity to the nuclear vitamin D receptor compared to 1,25-(OH)2D3 (in words) ([3]; full length recombinant rat VDR) | Ki ([3]; full-length recombinant rat vitamin D receptor, read-out: Ki, competition with [3H]-1,25(OH)2D3 for binding to VDR) | serum calcium (bone calcium mobilization) (vitamin D-deficient rats [4]) | bone calcium mobilization activity (in words) (vitamin D-deficient rats [4]) | EC50 (HL-60 cells) |
| --- | --- | --- | --- | --- | --- | --- | --- | --- | --- | --- | --- |
| C=C1[C@H](O)CC(=C/C=C2\CCC[C@]3(C)[C@@H]([C@@H](C)/C=C/CC(C)(C)O)CC[C@@H]23)C[C@H]1O [Compound N-23, (20S,22E)-2-Methylene-19-nor-22-ene-1α,25-dihydroxyvitamin D3] | 0.02 nM | about 10 times | 0.1 nM | about 10 times | less activity | dose dependent manner | same affinity | 0.06 nM | 6.8 mg/dL | slightly more bone calcium mobilization activity |  |
| C=C1/C(=C\C=C2/CCC[C@]3(C)[C@@H]([C@H](C)CCCC(C)(C)O)CC[C@@H]23)C[C@@H](O)C[C@@H]1O [1,25(OH)2D3, 1α,25-dihydroxyvitamin D3] | 0.2 nM |  |  |  |  |  |  |  | 6.1 mg/dL | increased serum calcium levels at all dosages | 2 nM |
